Experiment: photoluminescence quantum yield (fraction); solvent given as SMILES

Q: Which photoluminescence quantum yield (in CC#N) does the source give for `Cc1ccc2sc3cc(CCC(=O)O)ccc3c(=O)c2c1` here?
A: 0.0041

Q: And the photoluminescence quantum yield (in CC(C)O)?
A: 0.054

Q: What about the photoluminescence quantum yield (in CCO) of the same compound?
A: 0.082

Q: And the photoluminescence quantum yield (in CO)?
A: 0.12

Q: And the photoluminescence quantum yield (in OCCO)?
A: 0.23

Q: For `O=C1c2ccccc2C2=C(c3ccccn3)NN=C(c3ccccn3)C2c2ccccc21` (configuration not stated), which photoluminescence quantum yield (in CC#N) is on record?
A: 0.41

Q: What does the source list for `Cc1cc(-n2c3ccccc3c3cc4c(cc32)C2c3ccccc3C4c3ccccc32)c(C)cc1-c1nc(-c2ccccc2)nc(-c2ccccc2)n1`?
A: photoluminescence quantum yield (in Cc1ccccc1): 0.46; photoluminescence quantum yield (in O=P(c1ccccc1)(c1ccccc1)c1ccccc1Oc1ccccc1P(=O)(c1ccccc1)c1ccccc1): 0.3

Q: Which results are given for `Cc1ccc(C2=C3C=CC(C#Cc4ccccc4)=[N+]3[B-](F)(F)n3c(Cl)ccc32)cc1`?
A: photoluminescence quantum yield (in C1CCCCC1): 1; photoluminescence quantum yield (in C1CCOC1): 0.84; photoluminescence quantum yield (in C1COCCO1): 0.97; photoluminescence quantum yield (in CCOC(C)=O): 0.83; photoluminescence quantum yield (in CO): 0.98; photoluminescence quantum yield (in Cc1ccccc1): 0.91; photoluminescence quantum yield (in ClC(Cl)Cl): 0.95

Q: For `CC(C)(C)c1ccc(C#Cc2cc3c(C#Cc4ccc(C(C)(C)C)cc4)c(C#Cc4ccc(C(C)(C)C)cc4)c4cc(C#Cc5ccc(C(C)(C)C)cc5)cc5c(C#Cc6ccc(C(C)(C)C)cc6)c(C#Cc6ccc(C(C)(C)C)cc6)c(c2)c3c45)cc1`, which photoluminescence quantum yield (in ClCCl) is on record?
A: 0.23

Q: With `CCc1c(C)[nH]c(C2=[N+]3C(=Cc4c(C)c(CC)c(C)n4[B-]3(F)F)c3ccccc32)c1C` as the compound, how does the photoluminescence quantum yield (in C1CCOC1) read?
A: 0.09

Q: What about the photoluminescence quantum yield (in CC#N) of the same compound?
A: 0.03

Q: And the photoluminescence quantum yield (in CCCCCC)?
A: 0.86

Q: And the photoluminescence quantum yield (in CO)?
A: 0.04

Q: What about the photoluminescence quantum yield (in Cc1ccccc1) of the same compound?
A: 0.75

Q: What about the photoluminescence quantum yield (in ClCCl) of the same compound?
A: 0.73

Q: Which photoluminescence quantum yield (in ClCCl) does the source give for `Fc1ccc(C#Cc2nc(C#Cc3ccc(F)cc3)c(C#Cc3ccc(F)cc3)c(C#Cc3ccc(F)cc3)c2C#Cc2ccc(F)cc2)cc1` here?
A: 0.47

Q: Which photoluminescence quantum yield (in ClCCl) does the source give for `COC(=O)CCC1=CC(C#Cc2cccs2)=[N+]2C1=Cc1c(CCC(=O)OC)cc(C#Cc3cccs3)n1[B-]2(F)F` here?
A: 0.17

Q: Which results are given for `c1ccc2c(-c3ccc4sc5ccccc5c4c3)c3ccccc3cc2c1`?
A: photoluminescence quantum yield (in C1CCCCC1): 0.52; photoluminescence quantum yield (in CC#N): 0.43; photoluminescence quantum yield (in ClCCl): 0.7

Q: With `COc1ccc(C2=C(c3ccc(OC)cc3)C(C)(C)c3cc(OC)ccc32)cc1` as the compound, how does the photoluminescence quantum yield (in C1CCCCC1) read?
A: 0.12

Q: With `O=C1c2ccccc2-c2nc3ccccc3n21` as the compound, how does the photoluminescence quantum yield (in ClCCl) read?
A: 0.04

Q: For `CC1=C(c2cccs2)C2=Cc3c(-c4cccs4)c(C)c(C)n3[B-](F)(F)[N+]2=C1C`, which photoluminescence quantum yield (in CC#N) is on record?
A: 0.52

Q: With `CCCCCCCCCCCCc1ccc(-c2cc(C)[o+]c(C)c2)cc1` as the compound, how does the photoluminescence quantum yield (in CC#N) read?
A: 0.36

Q: What about the photoluminescence quantum yield (in ClCCl) of the same compound?
A: 0.37

Q: For `O=c1oc2ccccc2c(O)c1C(CC(O)c1ccc(-c2ccc(Br)cc2)cc1)c1ccccc1` (configuration not stated), which photoluminescence quantum yield (in CC#N) is on record?
A: 0.06

Q: And the photoluminescence quantum yield (in CCO)?
A: 0.058

Q: What about the photoluminescence quantum yield (in CO) of the same compound?
A: 0.034

Q: And the photoluminescence quantum yield (in O)?
A: 0.017

Q: Which photoluminescence quantum yield (in C1CCCCC1) does the source give for `Cc1cc(C)c(C2=C3C=C(c4ccc(C(C)(C)C)cc4)C(c4ccc(C(C)(C)C)cc4)=[N+]3[B-](F)(F)n3c2cc(-c2ccc(C(C)(C)C)cc2)c3-c2ccc(C(C)(C)C)cc2)c(C)c1` here?
A: 0.77

Q: What about the photoluminescence quantum yield (in C1CCOC1) of the same compound?
A: 0.96

Q: And the photoluminescence quantum yield (in CC#N)?
A: 0.62

Q: What about the photoluminescence quantum yield (in Cc1ccccc1) of the same compound?
A: 0.78

Q: And the photoluminescence quantum yield (in ClCCl)?
A: 0.74

Q: For `CN(C)c1ccc(C#Cc2cc(C#Cc3ccc(N(C)C)cc3)c3ccc4c(C#Cc5ccc(N(C)C)cc5)cc(C#Cc5ccc(N(C)C)cc5)c5ccc2c3c54)cc1`, which photoluminescence quantum yield (in ClCCl) is on record?
A: 0.6

Q: Which photoluminescence quantum yield (in C1CCOC1) does the source give for `O=C1NC(=O)c2c1c1c3ccccc3[nH]c1c1[nH]c3ccccc3c21` here?
A: 0.44

Q: And the photoluminescence quantum yield (in CC#N)?
A: 0.33

Q: And the photoluminescence quantum yield (in CC(C)OC(C)C)?
A: 0.25

Q: What about the photoluminescence quantum yield (in CCCCOCCCC) of the same compound?
A: 0.28

Q: What about the photoluminescence quantum yield (in CCO) of the same compound?
A: 0.26

Q: What about the photoluminescence quantum yield (in CCOC(C)=O) of the same compound?
A: 0.29

Q: And the photoluminescence quantum yield (in CN(C)C=O)?
A: 0.25

Q: And the photoluminescence quantum yield (in ClCCl)?
A: 0.18

Q: With `N#Cc1nn(-c2ccccc2C(F)(F)F)nc1N1CCCC1` as the compound, how does the photoluminescence quantum yield (in CC#N) read?
A: 0.71

Q: For `C(=C\c1ccc2ccccc2c1)/c1ccc(N(c2ccccc2)c2ccccc2)cc1`, which photoluminescence quantum yield (in CC#N) is on record?
A: 0.42

Q: And the photoluminescence quantum yield (in CCCCCC)?
A: 0.61

Q: For `CC(C)c1cc(C(C)C)c(B2c3ccccc3Oc3cc(N4c5ccccc5C5(c6ccccc6Oc6ccccc65)c5ccccc54)ccc32)c(C(C)C)c1`, which photoluminescence quantum yield (in Cc1ccccc1) is on record?
A: 0.56

Q: For `COc1ccc(/C=C/C=C/C=C/c2ccc([N+](=O)[O-])cc2)cc1`, which photoluminescence quantum yield (in C1CCOC1) is on record?
A: 0.44

Q: And the photoluminescence quantum yield (in C1COCCO1)?
A: 0.57

Q: And the photoluminescence quantum yield (in CC1CCCCC1)?
A: 0.21

Q: What about the photoluminescence quantum yield (in CC#N) of the same compound?
A: 0.013

Q: And the photoluminescence quantum yield (in CO)?
A: 0.002

Q: What about the photoluminescence quantum yield (in CS(C)=O) of the same compound?
A: 0.03

Q: And the photoluminescence quantum yield (in Cc1ccccc1)?
A: 0.63

Q: And the photoluminescence quantum yield (in ClC(Cl)Cl)?
A: 0.14

Q: What about the photoluminescence quantum yield (in ClCCl) of the same compound?
A: 0.074

Q: For `CC1(C)c2ccccc2N(c2ccc(-c3nc(-c4ccccn4)n(-c4ccccc4)n3)cc2)c2ccccc21`, which photoluminescence quantum yield (in ClCCl) is on record?
A: 0.0612

Q: With `COc1cc(OC)cc(C2=C3C(C)=C(I)C(/C=C/c4c[nH]c5ccc([N+](=O)[O-])cc45)=[N+]3[B-](F)(F)n3c(/C=C/c4c[nH]c5ccc([N+](=O)[O-])cc45)c(I)c(C)c32)c1` as the compound, how does the photoluminescence quantum yield (in C1CCOC1) read?
A: 0.03

Q: What about the photoluminescence quantum yield (in CS(C)=O) of the same compound?
A: 0.02

Q: What about the photoluminescence quantum yield (in ClCCl) of the same compound?
A: 0.02

Source: the Deep4Chem optical property database
